Data taken from article PMC8923065, “Paeoniflorin reduce luxS/AI-2 system-controlled biofilm formation and virulence in Streptococcus suis” (Virulence, 2021).

Molecular target: T1, LuxS (Streptococcus suis, UniProt B2CMA5)
T1 construct: recombinant from pET28-luxS in E. coli BL21(DE3), HisTrap purified
Assay: Ellman assay of homocysteine, […] nm, Michaelis-Menten fit
Assay type: biochemical
Settings: SRH as substrate, 6.25-25 ug/ml PF, pH 7.2, 37 °C; competitive; partial inhibition

T1 sequence (B2CMA5 entry or part of it): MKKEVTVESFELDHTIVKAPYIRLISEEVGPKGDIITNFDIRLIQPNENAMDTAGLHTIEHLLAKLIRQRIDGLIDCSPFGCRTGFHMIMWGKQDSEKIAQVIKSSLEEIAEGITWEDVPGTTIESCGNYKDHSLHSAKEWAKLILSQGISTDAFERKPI

SMILES: C[C@@]12C[C@@]3(O)O[C@@H](O1)[C@]1(COC(=O)c4ccccc4)[C@H]3C[C@@]12O[C@@H]1O[C@H](CO)[C@@H](O)[C@H](O)[C@H]1O [PF, paeoniflorin]
- Ellman assay of homocysteine, 412 nm, Michaelis-Menten fit: the Km value of LuxS gradually increases, although the maximum reaction rate does not change
